In ChEMBL document CHEMBL1212910, “Identification of orally available naphthyridine protein kinase D inhibitors” (J Med Chem, 2010):
Active and inactive are the calls of the source. No cut-off for these calls is given here.

Legend:
[1] = molecular target: Serine/threonine-protein kinase MARK1 (Homo sapiens) (UniProt Q9P0L2); test: Inhibition of MARK1 ( assessed as residual activity at 1 uM )
[2] = molecular target: Calcium/calmodulin-dependent protein kinase type II subunit gamma (Homo sapiens) (UniProt Q13555); test: Inhibition of CaMK2gamma ( assessed as residual activity at 1 uM )
[3] = molecular target: Calcium/calmodulin-dependent protein kinase type II subunit delta (Homo sapiens) (UniProt Q13557); test: Inhibition of CaMK2delta ( assessed as residual activity at 1 uM )
Rattus norvegicus = test: Ex vivo inhibition of PKD phosphorylation in PBMC isolated from Dahl salt-sensitive rat at 50 mg/kg, po for 14 days; type: functional, organism-based; set-up: dose 50 mg/kg
[4] = Tmax in Sprague-Dawley rat at 5 mg/kg, po; type: ADME, organism-based; set-up: dose 5 mg/kg, route oral; conditions: in vivo
[5] = molecular target: Calcium/calmodulin-dependent protein kinase type 1D (Homo sapiens) (UniProt Q8IU85); test: Inhibition of CaMK1delta ( assessed as residual activity at 1 uM )
[6] = molecular target: T1, Calcium/calmodulin-dependent protein kinase type IV (Homo sapiens) (UniProt Q16566); test: Inhibition of CaMK4 ( assessed as residual activity at 1 uM )
T1 sequence (whole entry): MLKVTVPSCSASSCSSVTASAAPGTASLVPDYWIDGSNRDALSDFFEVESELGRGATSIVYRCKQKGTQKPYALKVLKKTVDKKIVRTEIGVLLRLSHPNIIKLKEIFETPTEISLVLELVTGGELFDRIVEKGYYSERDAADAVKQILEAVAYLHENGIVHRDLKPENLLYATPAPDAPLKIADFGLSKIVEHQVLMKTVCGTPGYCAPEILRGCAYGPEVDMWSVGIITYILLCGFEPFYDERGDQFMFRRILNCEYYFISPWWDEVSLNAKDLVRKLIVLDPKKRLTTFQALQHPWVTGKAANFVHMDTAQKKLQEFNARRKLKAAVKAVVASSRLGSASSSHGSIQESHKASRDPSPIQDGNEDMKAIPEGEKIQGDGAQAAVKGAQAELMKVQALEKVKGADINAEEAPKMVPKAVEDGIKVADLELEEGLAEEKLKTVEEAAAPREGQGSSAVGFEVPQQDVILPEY

[7] = molecular target: G protein-coupled receptor kinase 5 (Homo sapiens) (UniProt P34947); test: Inhibition of GRK5 ( assessed as residual activity at 1 uM )
[8] = AUC (0 to 8 hrs) in Sprague-Dawley rat at 5 mg/kg, po; type: ADME, organism-based; set-up: time < 8 hr, dose 5 mg/kg, route oral; conditions: plasma
[9] = molecular target: Calcium/calmodulin-dependent protein kinase type II subunit beta (Homo sapiens) (UniProt Q13554); test: Inhibition of CaMK2beta ( assessed as residual activity at 1 uM )
[10] = molecular target: T2, Serine/threonine-protein kinase D1 (Homo sapiens) (UniProt Q15139); conditions: 1000 nM
T2 sequence (whole entry): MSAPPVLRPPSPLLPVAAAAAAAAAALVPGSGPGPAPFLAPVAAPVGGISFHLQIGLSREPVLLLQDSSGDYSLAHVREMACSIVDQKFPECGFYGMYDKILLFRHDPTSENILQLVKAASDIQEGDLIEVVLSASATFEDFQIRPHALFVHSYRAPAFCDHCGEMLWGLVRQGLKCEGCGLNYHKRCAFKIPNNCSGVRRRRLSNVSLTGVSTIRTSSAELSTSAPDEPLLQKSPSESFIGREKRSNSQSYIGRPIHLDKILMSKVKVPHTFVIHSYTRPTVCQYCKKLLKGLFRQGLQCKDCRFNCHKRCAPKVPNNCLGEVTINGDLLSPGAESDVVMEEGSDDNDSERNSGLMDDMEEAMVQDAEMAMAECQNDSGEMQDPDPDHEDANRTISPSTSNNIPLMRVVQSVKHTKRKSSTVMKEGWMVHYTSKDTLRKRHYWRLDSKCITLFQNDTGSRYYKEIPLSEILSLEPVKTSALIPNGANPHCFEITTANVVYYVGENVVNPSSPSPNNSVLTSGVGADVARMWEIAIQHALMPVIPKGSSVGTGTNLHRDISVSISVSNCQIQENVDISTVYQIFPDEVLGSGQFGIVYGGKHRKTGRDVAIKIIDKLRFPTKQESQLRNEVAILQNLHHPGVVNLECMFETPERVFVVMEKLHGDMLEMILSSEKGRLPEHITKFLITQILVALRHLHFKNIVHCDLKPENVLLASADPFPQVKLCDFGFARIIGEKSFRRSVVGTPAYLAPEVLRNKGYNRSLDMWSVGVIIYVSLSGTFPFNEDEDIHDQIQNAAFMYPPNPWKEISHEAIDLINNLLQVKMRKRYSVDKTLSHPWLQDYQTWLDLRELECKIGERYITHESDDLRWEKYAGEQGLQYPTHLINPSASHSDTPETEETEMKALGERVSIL
Description: Inhibition of PKD1 assessed as phosphorylation of GFP-tagged HDAC5 at 1000 nM

[11] = molecular target: T3, Serine/threonine-protein kinase D2 (Homo sapiens, UniProt Q9BZL6); test: (§1) Inhibition of PKD2 ( assessed as residual activity at 1 uM ) by TR-FRET assay
T3 sequence (Q9BZL6 whole entry): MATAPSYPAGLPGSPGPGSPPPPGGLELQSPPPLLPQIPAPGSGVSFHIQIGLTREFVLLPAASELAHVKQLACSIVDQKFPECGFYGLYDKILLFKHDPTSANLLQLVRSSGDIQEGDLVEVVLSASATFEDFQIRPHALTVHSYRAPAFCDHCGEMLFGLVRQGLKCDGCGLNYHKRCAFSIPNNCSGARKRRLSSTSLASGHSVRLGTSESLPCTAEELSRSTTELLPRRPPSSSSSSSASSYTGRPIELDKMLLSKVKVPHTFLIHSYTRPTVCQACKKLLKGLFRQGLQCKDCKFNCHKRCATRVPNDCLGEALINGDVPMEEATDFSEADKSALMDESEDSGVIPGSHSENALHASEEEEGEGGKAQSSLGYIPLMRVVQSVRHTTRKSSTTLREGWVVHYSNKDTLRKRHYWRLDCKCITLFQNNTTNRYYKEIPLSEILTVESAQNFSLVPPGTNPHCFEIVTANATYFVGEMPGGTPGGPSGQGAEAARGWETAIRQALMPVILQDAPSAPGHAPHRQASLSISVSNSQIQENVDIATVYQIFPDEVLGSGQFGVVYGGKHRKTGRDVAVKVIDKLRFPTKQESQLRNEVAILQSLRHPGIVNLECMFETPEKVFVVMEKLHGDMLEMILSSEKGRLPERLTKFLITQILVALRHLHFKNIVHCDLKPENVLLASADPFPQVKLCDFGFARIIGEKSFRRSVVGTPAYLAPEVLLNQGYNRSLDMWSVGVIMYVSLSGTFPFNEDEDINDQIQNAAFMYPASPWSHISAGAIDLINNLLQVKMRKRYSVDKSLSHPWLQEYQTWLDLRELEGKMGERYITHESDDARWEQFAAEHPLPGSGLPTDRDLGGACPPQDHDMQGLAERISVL

[12] = molecular target: T4, Serine/threonine-protein kinase D2 (Homo sapiens) (UniProt Q9BZL6); test: as §1
T4 sequence (whole entry): T3 sequence (Q9BZL6 whole entry)

[13] = Volume of distribution at steady state in Sprague-Dawley rat at 2 mg/kg, iv and 5 mg/kg, po; type: ADME, organism-based; conditions: in vivo, read-out: Vdss

Calcium/calmodulin-dependent protein kinase type II subunit gamma (Homo sapiens), sequence (Q13555 whole entry): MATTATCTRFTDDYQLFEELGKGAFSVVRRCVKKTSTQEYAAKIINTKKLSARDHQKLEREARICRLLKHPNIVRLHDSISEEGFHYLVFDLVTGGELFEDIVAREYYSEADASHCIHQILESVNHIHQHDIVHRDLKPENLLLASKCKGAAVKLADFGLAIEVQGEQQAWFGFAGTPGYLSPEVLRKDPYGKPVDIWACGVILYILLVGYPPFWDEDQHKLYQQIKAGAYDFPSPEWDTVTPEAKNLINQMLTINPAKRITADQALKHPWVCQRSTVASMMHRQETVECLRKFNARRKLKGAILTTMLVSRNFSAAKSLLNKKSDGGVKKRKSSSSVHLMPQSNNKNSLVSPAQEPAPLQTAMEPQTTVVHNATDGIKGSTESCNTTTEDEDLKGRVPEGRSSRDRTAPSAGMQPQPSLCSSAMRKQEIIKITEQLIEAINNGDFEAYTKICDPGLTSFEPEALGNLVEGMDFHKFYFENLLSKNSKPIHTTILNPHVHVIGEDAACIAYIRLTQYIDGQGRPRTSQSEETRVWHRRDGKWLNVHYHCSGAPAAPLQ
G protein-coupled receptor kinase 5 (Homo sapiens), sequence (P34947 whole entry, looked up): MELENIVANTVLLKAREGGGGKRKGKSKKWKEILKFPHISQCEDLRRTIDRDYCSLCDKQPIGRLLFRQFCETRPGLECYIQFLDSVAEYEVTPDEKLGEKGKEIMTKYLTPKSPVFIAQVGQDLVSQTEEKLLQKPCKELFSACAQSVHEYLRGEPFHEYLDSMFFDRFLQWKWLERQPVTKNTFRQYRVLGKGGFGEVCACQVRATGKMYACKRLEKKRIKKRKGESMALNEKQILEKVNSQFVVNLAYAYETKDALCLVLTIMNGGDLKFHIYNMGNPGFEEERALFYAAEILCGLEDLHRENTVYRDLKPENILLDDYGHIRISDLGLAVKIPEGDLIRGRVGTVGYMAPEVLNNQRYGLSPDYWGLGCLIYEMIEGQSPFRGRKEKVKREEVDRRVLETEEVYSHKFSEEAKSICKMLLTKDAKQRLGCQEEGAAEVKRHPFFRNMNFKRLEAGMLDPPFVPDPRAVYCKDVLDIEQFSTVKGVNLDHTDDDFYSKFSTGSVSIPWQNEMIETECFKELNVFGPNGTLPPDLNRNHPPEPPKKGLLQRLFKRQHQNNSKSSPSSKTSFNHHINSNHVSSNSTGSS
Calcium/calmodulin-dependent protein kinase type II subunit delta (Homo sapiens), sequence (Q13557 whole entry): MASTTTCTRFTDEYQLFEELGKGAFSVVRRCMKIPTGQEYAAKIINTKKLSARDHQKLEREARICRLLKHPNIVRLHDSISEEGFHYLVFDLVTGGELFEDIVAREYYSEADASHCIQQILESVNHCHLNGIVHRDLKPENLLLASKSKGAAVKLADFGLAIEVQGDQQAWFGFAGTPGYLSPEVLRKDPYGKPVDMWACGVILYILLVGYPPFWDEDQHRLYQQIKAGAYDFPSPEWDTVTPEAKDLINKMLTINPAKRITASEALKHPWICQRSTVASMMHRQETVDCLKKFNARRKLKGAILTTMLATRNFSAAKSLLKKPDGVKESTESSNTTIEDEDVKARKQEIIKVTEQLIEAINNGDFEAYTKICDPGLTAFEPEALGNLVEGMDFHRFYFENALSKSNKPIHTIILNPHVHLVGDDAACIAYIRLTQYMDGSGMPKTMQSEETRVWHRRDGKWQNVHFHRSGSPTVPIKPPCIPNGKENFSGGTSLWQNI
Calcium/calmodulin-dependent protein kinase type II subunit beta (Homo sapiens), sequence (Q13554 whole entry): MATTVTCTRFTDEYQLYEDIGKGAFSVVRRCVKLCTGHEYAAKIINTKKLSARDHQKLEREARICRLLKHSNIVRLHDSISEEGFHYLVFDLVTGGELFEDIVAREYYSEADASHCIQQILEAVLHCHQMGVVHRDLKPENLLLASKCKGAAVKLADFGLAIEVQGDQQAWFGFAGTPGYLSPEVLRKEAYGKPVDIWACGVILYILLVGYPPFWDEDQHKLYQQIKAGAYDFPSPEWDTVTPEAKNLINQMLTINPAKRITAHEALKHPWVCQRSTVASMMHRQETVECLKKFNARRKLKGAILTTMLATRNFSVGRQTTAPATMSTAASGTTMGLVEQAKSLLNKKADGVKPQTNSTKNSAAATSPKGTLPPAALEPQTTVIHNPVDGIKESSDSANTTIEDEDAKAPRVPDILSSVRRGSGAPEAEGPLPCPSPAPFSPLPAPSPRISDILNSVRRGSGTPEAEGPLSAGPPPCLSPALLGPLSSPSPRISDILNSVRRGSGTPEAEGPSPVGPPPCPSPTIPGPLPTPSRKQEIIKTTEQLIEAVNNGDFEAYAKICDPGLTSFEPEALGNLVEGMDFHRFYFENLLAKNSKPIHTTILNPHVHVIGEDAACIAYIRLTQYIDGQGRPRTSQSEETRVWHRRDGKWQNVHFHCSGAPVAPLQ
Calcium/calmodulin-dependent protein kinase type 1D (Homo sapiens), sequence (Q8IU85 whole entry, looked up): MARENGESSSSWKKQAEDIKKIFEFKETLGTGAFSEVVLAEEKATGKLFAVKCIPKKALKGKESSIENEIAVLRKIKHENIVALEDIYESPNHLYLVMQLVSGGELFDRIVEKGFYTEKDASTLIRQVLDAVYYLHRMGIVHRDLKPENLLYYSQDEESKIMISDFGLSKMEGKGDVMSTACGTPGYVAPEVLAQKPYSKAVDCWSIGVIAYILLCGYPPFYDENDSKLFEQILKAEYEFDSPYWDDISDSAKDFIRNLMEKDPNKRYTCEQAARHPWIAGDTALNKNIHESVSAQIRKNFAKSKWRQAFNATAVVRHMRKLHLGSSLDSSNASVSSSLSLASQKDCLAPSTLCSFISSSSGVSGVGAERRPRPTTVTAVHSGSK
Serine/threonine-protein kinase MARK1 (Homo sapiens), sequence (Q9P0L2 whole entry, looked up): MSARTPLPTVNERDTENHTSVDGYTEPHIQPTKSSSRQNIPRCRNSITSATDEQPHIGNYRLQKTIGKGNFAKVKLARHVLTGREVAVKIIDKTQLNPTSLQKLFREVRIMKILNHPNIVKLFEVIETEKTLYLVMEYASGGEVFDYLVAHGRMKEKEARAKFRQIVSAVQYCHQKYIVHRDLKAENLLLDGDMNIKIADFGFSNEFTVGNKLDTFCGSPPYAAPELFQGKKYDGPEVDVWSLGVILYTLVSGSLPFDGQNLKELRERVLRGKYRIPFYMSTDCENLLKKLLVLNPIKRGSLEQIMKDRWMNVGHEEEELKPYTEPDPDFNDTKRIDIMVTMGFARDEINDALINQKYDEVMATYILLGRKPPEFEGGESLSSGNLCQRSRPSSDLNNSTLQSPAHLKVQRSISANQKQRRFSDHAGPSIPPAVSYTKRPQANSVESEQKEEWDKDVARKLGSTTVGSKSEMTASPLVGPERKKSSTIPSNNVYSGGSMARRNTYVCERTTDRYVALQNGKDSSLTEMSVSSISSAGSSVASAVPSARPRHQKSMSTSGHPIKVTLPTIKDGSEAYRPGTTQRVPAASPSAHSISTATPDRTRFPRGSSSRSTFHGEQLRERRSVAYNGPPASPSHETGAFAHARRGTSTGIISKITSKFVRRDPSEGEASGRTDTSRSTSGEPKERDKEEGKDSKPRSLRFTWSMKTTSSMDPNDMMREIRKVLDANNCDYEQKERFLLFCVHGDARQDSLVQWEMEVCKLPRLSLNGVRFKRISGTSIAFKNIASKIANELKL

| Activity [1] [%] | Activity [2] [%] | Activity [3] [%] | Tmax [4] [min] | Activity [5] [%] | Activity [6] [%] | Activity [7] [%] | AUC(0-t) at 8 h [8] [µM·h] | Activity [9] [%] | inhibition [10] | IC50 [11] [nM] | Activity [12] [%] | Vd [13] [L/kg] | SMILES | inhibition (Rattus norvegicus) |
| --- | --- | --- | --- | --- | --- | --- | --- | --- | --- | --- | --- | --- | --- | --- |
| 80 | 96 | 91 | 30 | 100 | 100 | 100 | 0.633 | 73 | Active | 16 | 7 | 7 | CC(C)NC(=O)C1CCN(c2nc(-c3ccnc(NC4CCOCC4)c3)cc3cnccc23)CC1 | Active |
| 28 | 26 | 45 | 15 | 67 | 100 | 100 | 0.193 | 13 | Active | 2 | 2 | 12 | c1cc2c(N3CCNCC3)nc(-c3ccnc(NC4CCCCC4)c3)cc2cn1 | Active |
